SMILES strings stand for the structures. Counter-ions that a name gives are not always drawn.

As a reminder, the IC50 is the concentration needed to halve the response being measured. Read a high IC50 as lower potency.

The subject of test [1] is platelet aggregation induced by collagen. Nature of the test: inhibition of platelet aggregation induced by collagen. The class given is cell-based. From the text:
(§1) As representative compounds, 5-bromo-6-[[(5-bromo-3-pyridinylmethyl]amino]-2-methyl-4(1H)-pyrimidinone,HBr (Compound A) and 5-cyano-2-methyl-6-[[3-pyridinyl)methyl)]amino]-4(1H)-pyrimidinone hydrochloride (Compound B) inhibited platelet aggregation as follows.

A further test relates to white thrombus formation. Nature of the test: inhibition of white thrombus formation in the rabbit arteriovenous model. The class given is in vivo.
Test [2] deals with platelet aggregation induced by adenosine diphosphate. Nature of the test: inhibition of platelet aggregation induced by adenosine diphosphate (ADP). The class given is cell-based. To be noted: ADP (second phase).
Excerpt: as §1

Test [3] has as its system platelet aggregation induced by epinephrine. Nature of the test: inhibition of platelet aggregation induced by epinephrine. The class given is cell-based. To be noted: Epinephrine (second phase).
Excerpt: as §1

In test [4] the test system is platelet aggregation induced by U46619 (endoperoxide). Put plainly: inhibition of platelet aggregation induced by U46619 (endoperoxide). The class given is cell-based.
Excerpt: as §1

For test [5], the system named is platelet aggregation induced by arachidonic acid. Nature of the test: inhibition of platelet aggregation induced by arachidonic acid. The class given is cell-based.
Excerpt: as §1

As for `Cc1nc(NCc2cncc(Br)c2)c(Br)c(=O)[nH]1` [Compound A], the IC50 in test [1] came to 540 nM; in test [2], 200 nM; in test [3], 430 nM; in test [4], 210 nM; in test [5], 180 nM. Further, the “Percent Inhibition (thrombus weight)” value with white thrombus formation (0.1 mg/kg i.v.) is 28.4%; in the test on white thrombus formation (0.25 mg/kg i.v.), 47.1%.
Turning to `Cc1nc(NCc2cccnc2)c(C#N)c(=O)[nH]1` [Compound B, 5-cyano-2-methyl-6-[[3-pyridinyl)methyl)]amino]-4(1H)-pyrimidinone hydrochloride], the concentration for half-maximal inhibition (IC50) in test [1] was determined as 13300 nM; in test [2], 6300 nM; in test [3] it was 10800 nM; in test [4], 6600 nM; in test [5] it was 2800 nM. The “Percent Inhibition (thrombus weight)” value was 41.7% in the test with white thrombus formation (0.5 mg/kg i.v.), 56.8% with white thrombus formation (1.0 mg/kg i.v.) and 76.7% in the test on white thrombus formation (5.0 mg/kg i.v.).

Source of the values: patent US5002949A, “5-substituted-6-aminopyrimidine derivatives” (American Home Products Corporation, priority 1990, dated 1991).
